Measurements published in US10792633B2, “Composition comprising a fluorine-containing surfactant” (HWK-Kronbichler GmbH, priority 2016, dated 2020).
≈ marks a conversion by molar mass, not a printed value. Like-named read-outs stand apart in the source and are kept apart here. Marks after values point to notes of the source that are not given here.

Legend:
Type in all cases: physicochemical
[1] = Measurement of surface tension at suspended drop (Drop Shape Analyser DSA 25)
Experimental: The surface tension was determined at suspended drop using a “Drop Shape Analyser DSA 25” of the Krüss corporation. The drop volume at most measurements amounted to approximately 5 μl. […] Each sample was measured a total of ten times. The standard deviations are marked by s in the table shown below. In the measurements at a concentration of 0.05 wt % surfactant, larger drop volumes were used in some cases to obtain a better reproducibility of the measurement results.

[2] = Determining the solubility in water; conditions: for solubility at 5 min: water, 23 °C, thermodynamic from solid
Experimental: The suspension was added to the ultrasound bath for 5 minutes and was centrifuged for 20 minutes. The supernatant was then weighed and was rinsed with argon for 5 minutes to remove any possibly dissolved oxygen. […] The experiment was performed at approximately 23° C.

[3] = Solubility in organic solvents
[4] = Determination of the static surface tension in water (Example 10); conditions: mean of 10
Source text: The determination of the static surface tension for 3-(1H,1H,2H,2H-perfluorooctyl)-2-((1H,1H,2H,2H-perfluorooctyl)thio)-1-methyl-1H-imidazolium chloride in water produced the values indicated in the following Table 6 for the surface tension (OFS) in […] at different concentrations c in wt %. The values for OFS represent the mean value from 10 measurements. The standard deviation S [mN/m] for these values is likewise indicated.

[5] = Use as an emulsifying agent for Teflon (stability of the suspension in water); conditions: 0.100 g surfactant and 0.200 g Teflon 1 μm in water
Experimental: A solution of 10 ml water, 0.100 g 1-methyl-2-((1H,1H,2H,2H-perfluorooctyl)thio)-1H-imidazolium-2-acrylamido-2-methylpropanesulfonate was dissolved in 10 ml water and 0.200 g Teflon 1 μm (Sigmal-Aldrich) were subsequently added to this solution. A suspension was formed in this process that remained stable for at least 4 hours. After 2 days a white powder had been deposited on the bottom.

[6] = surfactant in water 0.05 wt %, n = 10, drop approx. 5 μl, * 8 μl, ** 20 μl
[7] = surfactant in water 0.5 wt %, n = 10, 24.5-25.1° C.

Compound: 1-methyl-2-((1H,1H,2H,2H-perfluorooctyl)thio)-1H-imidazolium-2-(methacryloyloxy)ethane-1-sulfonate [Synthesis Example 1]
- OFS (surface tension) ([1]; c 0.005 % in water): 70.28 mN/m
- OFS (surface tension) ([1]; c 0.01 % in water): 32.11 mN/m
- OFS (surface tension) ([1]; c 0.1 % in water): 20.8 mN/m
- OFS (surface tension) [1, 6]: 23.24 mN/m
- OFS (surface tension) [1, 7]: 16.22 mN/m
- Solubility in water ([2]; approximately 23° C., ultrasound bath 5 minutes, centrifuged 20 minutes): approximately 430 g/L

Compound: 1-methyl-2-((perfluorohexylethyl)thio)imidazoliumiodide-Co-1-iodoperfluorooctylane [1-iodoperfluorooctyl-Co-complex]
- Solubility in 3M Novec 71 IPA [3]: 20.5 mg/mL

Compound: CS(=O)(=O)O.Cn1ccnc1SCCC(F)(F)C(F)(F)C(F)(F)C(F)(F)C(F)(F)C(F)(F)F [1-methyl-2-((1H,1H,2H,2H-perfluorooctyl)thio)-1H-imidazolium-methanesulfonate]
- OFS (surface tension) [1, 6]: 24.39 mN/m
- OFS (surface tension) [1, 7]: 16.21 mN/m

Compound: CC1(C)C2CCC1(CS(=O)(=O)O)C(=O)C2.Cn1ccnc1SCCC(F)(F)C(F)(F)C(F)(F)C(F)(F)C(F)(F)C(F)(F)F [1-methyl-2-((1H,1H,2H,2H-perfluorooctyl)thio)imidazolium-(±)-camphor-10-sulfonate]
- Solubility in water ([2]; values not exact): >4000 mg/mL

Compound: Br.Cn1ccnc1SCCC(F)(F)C(F)(F)C(F)(F)C(F)(F)C(F)(F)C(F)(F)F [1-methyl-2-((1H,1H,2H,2H-perfluorooctyl)thio)imidazoliumbromide]
- Solubility in water ([2]; values not exact): 1200 mg/mL

Compound: Cl.Cn1ccnc1SCCC(F)(F)C(F)(F)C(F)(F)C(F)(F)C(F)(F)C(F)(F)F [1-methyl-2-((1H,1H,2H,2H-perfluorooctyl)thio)imidazoliumchloride]
- Solubility in water ([2]; values not exact): 1750 mg/mL

Compound: Cn1cc[n+](CCC(F)(F)C(F)(F)C(F)(F)C(F)(F)C(F)(F)C(F)(F)F)c1SCCC(F)(F)C(F)(F)C(F)(F)C(F)(F)C(F)(F)C(F)(F)F.[Cl-] [3-(1H,1H,2H,2H-perfluorooctyl)-2-((1H,1H,2H,2H-perfluorooctyl)thio)-1-methyl-1H-imidazolium chloride]
- OFS (static surface tension) ([4]; c 0.0025 wt % in water): 40.74 mN/m
- OFS (static surface tension) ([4]; c 0.0050 wt % in water): 21.29 mN/m
- OFS (static surface tension) ([4]; c 0.0075 wt % in water): 18.89 mN/m
- OFS (static surface tension) ([4]; c 0.0100 wt % in water): 16.29 mN/m
- OFS (static surface tension) ([4]; c 0.0250 wt % in water): 14.43 mN/m
- OFS (static surface tension) ([4]; c 0.0500 wt % in water): 15.05 mN/m
- OFS (static surface tension) ([4]; c 0.0750 wt % in water): 15.02 mN/m
- OFS (static surface tension) ([4]; c 0.1000 wt % in water): 15 mN/m
- OFS (static surface tension) ([4]; c 0.2500 wt % in water): 15.5 mN/m
- OFS (static surface tension) ([4]; c 0.5000 wt % in water): 14.5 mN/m

Compound: N.O=C(O)C(F)(F)C(F)OC(F)(F)C(F)(F)C(F)(F)OC(F)(F)F (centres unmarked) [Ammonium-4,8-dioxa-3H-perfluorononanoate, reference compound]
- OFS (surface tension) [1, 6]: 64.87** mN/m
- OFS (surface tension) [1, 7]: 46.42 mN/m

Compound: O=C(O)C(F)(F)C(F)(F)C(F)(F)C(F)(F)C(F)(F)C(F)(F)C(F)(F)F [Perfluorooctanoic acid, reference compound]
- OFS (surface tension) [1, 6]: 55.68** mN/m
- OFS (surface tension) [1, 7]: 16 mN/m

Compound: C=CC(=O)NC(C)(C)CS(=O)(=O)O.Cn1ccnc1SCCC(F)(F)C(F)(F)C(F)(F)C(F)(F)C(F)(F)C(F)(F)F [Synthesis Example 2, 1-methyl-2-((1H,1H,2H,2H-perfluorooctyl)thio)-1H-imidazolium-2-acrylamido-2-methylpropanesulfonate]
- soluble in water (in words) [2]: soluble in water
- time the Teflon suspension remained stable [5]: at least 4 hours

Compound: Cn1cc[n+](CCCS(=O)(=O)[O-])c1SCCC(F)(F)C(F)(F)C(F)(F)C(F)(F)C(F)(F)C(F)(F)F [Synthesis Example 6, 3-(1-methyl-2-((1H,1H,2H,2H-perfluorooctyl)thio)imidazolium-3-yl) propane-1-sulfonate]
- OFS (surface tension) [1, 6]: 29.74* mN/m
- OFS (surface tension) [1, 7]: 24.94 mN/m
- solubility at 5 min ([2]; values not exact, read-out: Solubility in water): 160 mg/mL (≈ 275 mM)
- solubility at 5 min ([2]; read-out: water solubility): ~160 mg/mL (≈ 275 mM)
